Assay results taken from patent publication US9968624B2, “Depression treatment agent” (THE UNIVERSITY OF TOKYO, priority 2014, dated 2018).

Assays:
[1] = system: mice (C57BL/6 strain, male); assay: Forced swim test (5S-ManNAcF intracerebroventricular administration, one week); format: in vivo, mouse
Description: Similar to Example 3, 5S-ManNAcF (0.01, 0.1, 1 mmol/L administration group: each 9-10 mice) was administered intracerebroventricularly. The dosing period was one week. The mice of the control group in the same age in weeks were administered with saline (control group: each 9-10 mice, SAL).
A forced swim test similar to that in Example 1 was performed at 1 week after administration.

[2] = system: mice (C57BL/6 strain, male); assay: Forced swim test (5S-ManNAcF, ManNAc, intracerebroventricular administration, 3 weeks); format: in vivo, mouse; conditions: 0.1 mmol/L in saline, intracerebroventricular by osmotic pump for 3 weeks, vs saline
Description: Using 8-9-week-old mice (C57BL/6 strain, male) having a catheter transplanted in the cerebroventricle, and carrying a connected osmotic pump (0.11 μl/hr, Alzet, No1004, 100 μl is released in 28 days) on the back, 5S-ManNAcF (0.01, 0.1 mmol/L) or ManNAc (100 mmol/L) dissolved in saline was intracerebroventricularly administered for 3 weeks (administration group: each 9-10 mice). The mice of the control group in the same age in weeks were administered with saline (control group: each 9-10 mice, SAL).
A forced swim test similar to that in Example 1 was performed at 3 weeks after administration.

[3] = system: mice (C57BL/6 strain, male); assay: Forced swim test (ManNAc oral administration); format: in vivo, mouse; conditions: juvenile mice (10- to 14-week-old), 5 mg/ml in drinking water for 4 weeks, 6 min test; control group about 2 min
Description: ManNAc was dissolved in drinking water, and drinking water having a concentration of 5 mg/ml was administered to juvenile mice (C57BL/6 strain, male) by administration by free drinking of water for 4 weeks in total from 10-week-old to 14-week-old (ManNAc administration group: 16 mice). The mice of the control group in the same age in weeks were allowed to take drinking water freely (control group: 16 mice).
Similarly, 5 mg/ml ManNAc-containing drinking water was administered to aged mice (C57BL/6 strain, male) by administration by free drinking of water for 4 weeks in total from […] (ManNAc administration group: 14 mice). The mice of the control group in the same age in weeks were allowed to take drinking water freely (control group: 15 mice).
According to the method described in S. C. […] The mice were graded with regard to 4 evaluation criteria: swimming, immobility, climbing, and others, and a dominant behavior was recorded every 5 sec. […]
When a mouse is forcibly placed in a water pool, it tries to swim to the shore. […] The forced swim test for 6 min enables quantification of immobility in a water tank, and the immobility has been proposed to be similar to “behavioral despair”, observed in depression.

[4] = system: juvenile mice (C57BL/6 strain, male); assay: Social defeat test; format: in vivo, mouse; conditions: defeat stress experience mice, 5 mg/ml in drinking water for 4 weeks, latter 3 min of 5 min
Description: Under conditions similar to those in Example 1, ManNAc was administered to juvenile mice (C57BL/6 strain, male) by administration by free drinking of water for 4 weeks in total from 10-week-old to 14-week-old (ManNAc administration group: 14 mice). The mice of the control group in the same age in weeks were allowed to take drinking water freely (control group: 14 mice).
A mouse that lived with a more aggressive mouse (aggressive mouse) for a given period (1 hr) stays away from the aggressive mouse thereafter. This test method reflects higher brain functions, and was developed as a social defeat test and widely utilized as a system for evaluating social anxiety (Nature (2008) 455, 894-902). The ManNAc administration group and the control group were made to stay together with an aggressive mouse (one-to-one) for 1 hr per day, and the defeat stress was imposed for 5 days. […] The number of times the defeat stress experience mouse intruded a contact zone formed on the periphery of the compartment in which the aggressive mouse was housed, and the sniffing time of the defeat stress experience mouse were measured in the latter 3 minutes of 5 minutes. […]

[5] = system: mice (BALB/c and C57BL/6 strains); conditions: BALB/c strain, fluoxetine 10 mg/kg/day; drug non-administration group about 125-130 sec; cited from earlier work

O=C(CF)NC1C(O)SC(CO)[C@@H](O)C1O (stereo partly drawn) [5S-ManNAcF]
total immobilization time as compared to the control group ([1]; 0.1 mmol/L in saline, intracerebroventricular by osmotic pump for one week, vs saline): significantly decreased | effect on total immobilization time, comparison of concentrations ([1]; 0.1 mmol/L vs 1 mmol/L, intracerebroventricular for one week): tendency of a higher effect at a concentration of 0.1 mmol/L than a high dose of 1 mmol/L | total immobilization time as compared to the control group [2]: significantly decreased

CC(=O)N[C@@H]1C(O)O[C@H](CO)[C@@H](O)[C@@H]1O (stereo partly drawn) [ManNAc, N-acetyl-D-mannosamine]
total immobilization time [3]: about 1 min | contact zone intrusion number [4]: a significant difference was not found | sniffing time (sniffing behavior) ([4]; water group about 20 sec or below, stress non-experience group about 30 sec): about 30 sec

CNCCC(Oc1ccc(C(F)(F)F)cc1)c1ccccc1 (stereo not shown) [fluoxetine]
immobilization time [5]: about 100 sec
